Data: patent US7994140B2, “Classes of compounds that interact with GPCRs” (Alchemia Limited, priority 2002, dated 2011)

Molecular target: T1, MC4 (Homo sapiens, UniProt P32245)
T1 construct: purchased Perkin Elmer BioSignal; host or cells: HEK 293
Assay: GPCR radioligand binding (RLB) assay, melanocortin MC4, [125I]NDP-αMSH
Details: for MC4 inhibition at 10 micromolar: 10 micromolar compound, recombinant human receptor membranes (HEK 293)
Description: Recombinant human receptors expressed in HEK 293 cells were used for all experiments. Receptor membrane preparations were purchased from Perkin Elmer BioSignal. The labelled ligand used in somatostatin GPCR RLB assays was [^125I]SST-14 and in melanocortin assays was [^125I]NDP-αMSH. All assays were done in a 96-well plate format using either glass fiber filter mats or filter plates. All reagents purchased were of the highest quality.
Specific assay buffer, incubation and washing conditions were optimized for each receptor however they all followed the same general format. The procedures for both filter mat and filter plate formats are based on the receptor manufacturers recommendations or those described extensively in the literature. The procedures are briefly outlined below.
In assays where filter mats are used we incubate receptor membranes, assay buffer and [^125I] labelled ligand in 96 well microplates. Add compounds to incubation mixture and continue incubation for optimized period. Presoak Filter mat GF/B in 0.5% PEI for ˜2 hr at 4° C. On completion of assay mixture incubation add additional 100 μL/well of assay buffer immediately prior to filtration. Filter the assay mixture onto the GF/B filter mat using a cell harvester. Dry the filter mats prior to sealing them into a scintillation counting bag with scintillant. Radioactivity in each well is detected by liquid scintillation counting.
In assays where filter plates are used Multiscreen glass fiber filter plates (Millipore, Cat No MAFCNOB10) are precoated with 0.5% PEI for ˜2 hr at 4° C. All wells are then washed with 200 µl/well assay buffer and filtered using the Multiscreen Separation System. Subsequently receptor membranes, assay buffer and labelled ligands are added to the wells and equilibrated. Compounds for testing are then added to the mixture and incubation is continued for an optimized time. Plates are then put into the Multiscreen Separation System and the assay mixture is filtered through the plate under vacuum. Each well is then washed several times with assay buffer. Plates are then dried prior to putting sealing tape onto the bottom of the plate. Scintillant is added to each well and radioactivity measured by liquid scintillation counting.
Raw data was analysed according to standard methods using either GraphPad Prism software or IDDBS ActivityBase software.

[1] = 4.0 Micromolar, Example Library 12
[2] = 4.0 Micromolar, Example Library 10
[3] = 4.0 Micromolar, Example Library 13
[4] = 4.0 Micromolar, Example Library 11

T1 sequence (P32245 whole entry): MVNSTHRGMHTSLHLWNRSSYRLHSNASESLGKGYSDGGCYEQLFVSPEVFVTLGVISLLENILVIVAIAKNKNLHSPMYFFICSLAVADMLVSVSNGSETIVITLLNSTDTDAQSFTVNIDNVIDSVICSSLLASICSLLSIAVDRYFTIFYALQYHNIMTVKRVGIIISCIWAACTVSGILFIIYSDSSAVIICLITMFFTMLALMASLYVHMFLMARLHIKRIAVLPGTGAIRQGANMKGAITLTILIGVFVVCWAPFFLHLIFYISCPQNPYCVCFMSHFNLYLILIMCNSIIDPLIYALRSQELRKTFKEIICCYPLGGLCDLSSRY

## N=C(N)NCCC(=O)N[C@H]1C(OCc2ccccc2)O[C@H](COCc2ccc(Cl)cc2)[C@@H](O)[C@@H]1OCc1ccc(Cl)cc1 (stereo partly shown) [Compound 450]
[1]
  MC4 Inhibition at 4.0 Micromolar: + (Indicates inhibition greater than . . . 50%)

## NCCC(=O)N[C@H]1C(OCc2ccc(Cl)cc2)O[C@H](COCc2ccc(Cl)cc2)[C@@H](O)[C@@H]1OCc1ccc(Cl)cc1 (stereo partly shown) [Compound 377]
[2]
  MC4 Inhibition at 4.0 Micromolar: + (Indicates inhibition greater than . . . 50%)

## CSC1OC(COC(=O)c2c[nH]c3ccccc23)C(O)C(OCc2cccc(N)c2)C1NCc1ccccc1 (stereo not shown) [Compound 309]
  MC4 inhibition at 10 micromolar: + (Indicates inhibition greater than . . . 50%)

## NCCCC(=O)N[C@H]1C(OCc2ccc(Cl)cc2)O[C@H](COCc2ccc3ccccc3c2)[C@@H](O)[C@@H]1OCc1ccccc1 (stereo partly shown) [Compound 395]
[2]
  MC4 Inhibition at 4.0 Micromolar: + (Indicates inhibition greater than . . . 50%)

## COC1C(O)C(COCc2ccc3ccccc3c2)OC(OCc2ccc(Cl)cc2)C1NC(=O)C(N)CN (stereo not shown) [Compound 342]
4.0 micromolar compound
  MC4 Inhibition at 4.0 Micromolar: + (Indicates inhibition greater than . . . 50%)

## NCCCC(=O)N[C@H]1C(OCc2ccc3ccccc3c2)O[C@H](COCc2ccc3ccccc3c2)[C@@H](O)[C@@H]1OCc1ccccc1 (single isomer, unassigned) [Compound 373]
[2]
  MC4 Inhibition at 4.0 Micromolar: + (Indicates inhibition greater than . . . 50%)

## CO[C@H]1[C@H](O)[C@@H](COCc2ccc(Cl)cc2)OC(OCc2ccc(Cl)cc2)[C@@H]1NC(=O)CCCNC(=N)N (stereo partly shown) [Compound 95]
  MC4 inhibition at 10 micromolar: + (Indicates inhibition greater than . . . 50%)

## N=C(N)NCCC(=O)N[C@H]1C(OCc2ccc(-c3ccccc3)cc2)O[C@H](COCc2ccc(Cl)cc2)[C@@H](O)[C@H]1OCc1ccc2ccccc2c1 (stereo partly shown) [Compound 475]
[3]
  MC4 Inhibition at 4.0 Micromolar: + (Indicates inhibition greater than . . . 50%)

## COC1C(O)C(COCc2ccc3ccccc3c2)OC(OCc2ccc(Cl)cc2)C1NC(=O)C1CCCN(C(=N)N)C1 (stereo not shown) [Compound 344]
4.0 micromolar compound
  MC4 Inhibition at 4.0 Micromolar: + (Indicates inhibition greater than . . . 50%)

## NCCC(=O)N[C@H]1C(OCc2ccc3ccccc3c2)O[C@H](COCc2ccccc2)[C@@H](O)[C@@H]1OCc1ccc2ccccc2c1 (stereo partly shown) [Compound 358]
[2]
  MC4 Inhibition at 4.0 Micromolar: + (Indicates inhibition greater than . . . 50%)

## NCCC(=O)NC1C(OCc2ccccc2)OC(COCc2ccc(Cl)cc2)C(O)C1OCc1ccc2ccccc2c1 (stereo not shown) [Compound 402]
[4]
  MC4 Inhibition at 4.0 Micromolar: + (Indicates inhibition greater than . . . 50%)

## N=C(N)NCC(=O)NC1C(OCc2ccc(Cl)cc2)OC(COCc2ccccc2)C(O)C1OCc1ccc(-c2ccccc2)cc1 (stereo not shown) [Compound 486]
[3]
  MC4 Inhibition at 4.0 Micromolar: + (Indicates inhibition greater than . . . 50%)

## NCCCC(=O)N[C@H]1C(OCc2ccc3ccccc3c2)O[C@H](COCc2ccc(Cl)cc2)[C@@H](O)[C@@H]1OCc1ccc(Cl)cc1 (single isomer, unassigned) [Compound 367]
[2]
  MC4 Inhibition at 4.0 Micromolar: + (Indicates inhibition greater than . . . 50%)

## NCCC(=O)NC1C(OCc2ccc3ccccc3c2)OC(COCc2ccccc2)C(O)C1OCc1ccc2ccccc2c1 (stereo not shown) [Compound 417]
[4]
  MC4 Inhibition at 4.0 Micromolar: + (Indicates inhibition greater than . . . 50%)

## CO[C@H]1[C@H](O)[C@@H](COCc2ccc(Cl)cc2)OC(OCCc2ccccc2)[C@@H]1NC(=O)CCCNC(=N)N (stereo partly shown) [Compound 107]
  MC4 inhibition at 10 micromolar: + (Indicates inhibition greater than . . . 50%)

## N=C(N)NCCC(=O)N[C@H]1C(OCc2ccc(-c3ccccc3)cc2)O[C@H](COCc2ccccc2)[C@@H](O)[C@H]1OCc1ccc2ccccc2c1 (stereo partly shown) [Compound 474]
[3]
  MC4 Inhibition at 4.0 Micromolar: + (Indicates inhibition greater than . . . 50%)

## NCCC(=O)N[C@H]1C(OCc2ccc(Cl)cc2)O[C@H](COCc2ccccc2)[C@@H](O)[C@@H]1OCc1ccc(Cl)cc1 (stereo partly shown) [Compound 376]
[2]
  MC4 Inhibition at 4.0 Micromolar: + (Indicates inhibition greater than . . . 50%)

## NCCC(=O)N[C@H]1C(OCc2ccc(Cl)cc2)O[C@H](COCc2ccc(Cl)cc2)[C@@H](O)[C@@H]1OCc1ccccc1 (stereo partly shown) [Compound 385]
[2]
  MC4 Inhibition at 4.0 Micromolar: + (Indicates inhibition greater than . . . 50%)

## N=C(N)NCC(=O)N[C@H]1C(OCc2ccc(-c3ccccc3)cc2)O[C@H](COCc2ccccc2)[C@@H](O)[C@H]1OCc1ccc2ccccc2c1 (stereo partly shown) [Compound 466]
[3]
  MC4 Inhibition at 4.0 Micromolar: + (Indicates inhibition greater than . . . 50%)

## NCCCC(=O)NC1C(OCc2ccccc2)OC(COCc2ccc3ccccc3c2)C(O)C1OCc1ccc2ccccc2c1 (stereo not shown) [Compound 408]
[4]
  MC4 Inhibition at 4.0 Micromolar: + (Indicates inhibition greater than . . . 50%)

## NCCC(=O)N[C@H]1C(OCc2ccc3ccccc3c2)O[C@H](COCc2ccc3ccccc3c2)[C@@H](O)[C@@H]1OCc1ccc2ccccc2c1 (stereo partly shown) [Compound 357]
[2]
  MC4 Inhibition at 4.0 Micromolar: + (Indicates inhibition greater than . . . 50%)

## NCCC(=O)NC1O[C@H](CO)[C@@H](O)[C@H](OCc2cccc3ccccc23)[C@H]1NC(=O)c1ccccc1 (stereo partly shown) [Compound 505]
1.0 micromolar compound
  MC4 Inhibition at 1.0 Micromolar: + (Indicates inhibition greater than . . . 50%)

## COC1C(O)C(COCc2ccc3ccccc3c2)OC(OCc2ccc(-c3ccccc3)cc2)C1NC(=O)CCCNC(=N)N (stereo not shown) [Compound 62]
  MC4 inhibition at 10 micromolar: + (Indicates inhibition greater than . . . 50%)

## CO[C@H]1[C@H](O)[C@@H](COCc2ccc(-c3ccccc3)cc2)OC(OCCc2ccccc2)[C@@H]1NC(=O)CCCNC(=N)N (stereo partly shown) [Compound 99]
  MC4 inhibition at 10 micromolar: + (Indicates inhibition greater than . . . 50%)

## NCCC(=O)N[C@H]1C(OCc2ccc3ccccc3c2)O[C@H](COCc2ccccc2)[C@@H](O)[C@@H]1OCc1ccccc1 (single isomer, unassigned) [Compound 363]
[2]
  MC4 Inhibition at 4.0 Micromolar: + (Indicates inhibition greater than . . . 50%)

## NCCC(=O)N[C@H]1C(OCc2ccc(Cl)cc2)O[C@H](COCc2ccc(Cl)cc2)[C@@H](O)[C@@H]1OCc1ccc2ccccc2c1 (stereo partly shown) [Compound 381]
[2]
  MC4 Inhibition at 4.0 Micromolar: + (Indicates inhibition greater than . . . 50%)

## COC1C(O)C(COCc2ccc3ccccc3c2)OC(OCc2ccc(Cl)cc2)C1NC(=O)CNC(=N)N (stereo not shown) [Compound 349]
4.0 micromolar compound
  MC4 Inhibition at 4.0 Micromolar: + (Indicates inhibition greater than . . . 50%)

## N=C(N)NCCC(=O)N[C@H]1C(OCc2ccc(-c3ccccc3)cc2)O[C@H](COCc2ccc3ccccc3c2)[C@@H](O)[C@H]1OCc1ccc(-c2ccccc2)cc1 (stereo partly shown) [Compound 476]
[3]
  MC4 Inhibition at 4.0 Micromolar: + (Indicates inhibition greater than . . . 50%)

## N=C(N)NCCC(=O)NC1C(OCc2ccc(Cl)cc2)OC(COCc2ccc(Cl)cc2)C(O)C1OCc1ccc(Cl)cc1 (stereo not shown) [Compound 490]
[3]
  MC4 Inhibition at 4.0 Micromolar: + (Indicates inhibition greater than . . . 50%)

## COC1C(O)C(COCc2ccc3ccccc3c2)OC(OCc2ccc(Cl)cc2)C1NCC(=O)C1CCCN1 (stereo not shown) [Compound 347]
4.0 micromolar compound
  MC4 Inhibition at 4.0 Micromolar: + (Indicates inhibition greater than . . . 50%)

## N=C(N)NCCC(=O)N[C@H]1C(OCc2ccccc2)O[C@H](COCc2ccc(Cl)cc2)[C@@H](O)[C@@H]1OCc1ccc(-c2ccccc2)cc1 (stereo partly shown) [Compound 460]
[1]
  MC4 Inhibition at 4.0 Micromolar: + (Indicates inhibition greater than . . . 50%)

## N=C(N)NCCC(=O)N[C@H]1C(OCc2ccccc2)O[C@H](COCc2ccccc2)[C@@H](O)[C@@H]1OCc1ccc(Cl)cc1 (stereo partly shown) [Compound 449]
[1]
  MC4 Inhibition at 4.0 Micromolar: + (Indicates inhibition greater than . . . 50%)

## N=C(N)NCCC(=O)N[C@H]1C(OCc2ccccc2)O[C@H](COCc2ccc3ccccc3c2)[C@@H](O)[C@@H]1OCc1ccc2ccccc2c1 (stereo partly shown) [Compound 452]
[1]
  MC4 Inhibition at 4.0 Micromolar: + (Indicates inhibition greater than . . . 50%)

## COC1C(O)C(COCc2ccc3ccccc3c2)OC(OCc2ccc(Cl)cc2)C1NC(=O)C(N)CN (stereo not shown) [Compound 346]
4.0 micromolar compound
  MC4 Inhibition at 4.0 Micromolar: + (Indicates inhibition greater than . . . 50%)

## N=C(N)NCCC(=O)N[C@H]1C(OCc2ccccc2)O[C@H](COCc2ccccc2)[C@@H](O)[C@@H]1OCc1ccc2ccccc2c1 (stereo partly shown) [Compound 454]
[1]
  MC4 Inhibition at 4.0 Micromolar: + (Indicates inhibition greater than . . . 50%)

## NCCC(=O)N[C@H]1C(OCc2ccc(Cl)cc2)O[C@H](COCc2ccc3ccccc3c2)[C@@H](O)[C@@H]1OCc1ccccc1 (stereo partly shown) [Compound 383]
[2]
  MC4 Inhibition at 4.0 Micromolar: + (Indicates inhibition greater than . . . 50%)

## N=C(N)NCCCC(=O)NC1C(OCc2ccc(-c3ccccc3)cc2)OC(COCc2ccccc2)C(O)C1OCc1ccccc1 (stereo not shown) [Compound 497]
[3]
  MC4 Inhibition at 4.0 Micromolar: + (Indicates inhibition greater than . . . 50%)

## NCCCC(=O)NC1C(OCc2ccccc2)OC(COCc2ccc(Cl)cc2)C(O)C1OCc1ccc(Cl)cc1 (stereo not shown) [Compound 407]
[4]
  MC4 Inhibition at 4.0 Micromolar: + (Indicates inhibition greater than . . . 50%)

## NCCC(=O)N[C@H]1C(OCc2ccc3ccccc3c2)O[C@H](COCc2ccc(Cl)cc2)[C@@H](O)[C@@H]1OCc1ccc2ccccc2c1 (stereo partly shown) [Compound 359]
[2]
  MC4 Inhibition at 4.0 Micromolar: + (Indicates inhibition greater than . . . 50%)

## N=C(N)NCC(=O)N[C@H]1C(OCc2ccccc2)O[C@H](COCc2ccc(Cl)cc2)[C@@H](O)[C@@H]1OCc1ccc2ccccc2c1 (stereo partly shown) [Compound 440]
[1]
  MC4 Inhibition at 4.0 Micromolar: + (Indicates inhibition greater than . . . 50%)
